pIC50: −log10 of the molar value. Structures can show the parent of a compound that is named as a salt.
Target: NDM-1 (Klebsiella pneumoniae, UniProt C7C422)
Assay: biochemical
Details: NDM-1 2.5 nM, 100 μM imipenem as substrate, 100 μM ZnSO4, pH 7.5, 30° C.
Procedure: Amplification was carried out by a polymerase chain reaction (PCR) with Pyrobest DNA polymerase (Takara Bio) in which a plasmid having an NDM-1 gene sequence (GenBank Accession number: FN396876) synthesized by Life Technologies Japan Ltd. (consignment synthesis) was used as a template and two primers ([…] and […]) were used. The amplified DNA fragments were digested with restriction enzymes Nco I and Xho I and were incorporated in a vector pET-28a(+) to acquire a recombinant plasmid. The plasmid was transformed into E. coli BL21(DE3) (Novagen), and the transformants thus obtained were grown to an absorbance at 600 nm of about 0.7 in 0.8 L of an SB medium (1.2% (w/v) bacto tryptone, 2.4% (w/v) yeast extract, 0.5% (v/v) glycerol, 0.072 M dipotassium hydrogenphosphate, and 0.028 M potassium dihydrogenphosphate) containing 30 μg/ml kanamycin. Isopropyl-β-D-thiogalactopyranoside was added to a final concentration of 1 mM, and induction was carried out at 20° C. overnight, followed by harvesting with a centrifuge.
50 mM HEPES (pH 7.5), 20 μg/ml BSA, 100 μM ZnSO4, 2% DMSO, and 100 μM imipenem as a substrate (these concentrations being final concentration) were added into a 1 ml quartz cell. […] A plurality of inhibitor concentrations were studied, a sigmoid curve was prepared from each inhibitory activity, and IC50 values were calculated.

Chain of NDM-1 (C7C422 29-270, looked up): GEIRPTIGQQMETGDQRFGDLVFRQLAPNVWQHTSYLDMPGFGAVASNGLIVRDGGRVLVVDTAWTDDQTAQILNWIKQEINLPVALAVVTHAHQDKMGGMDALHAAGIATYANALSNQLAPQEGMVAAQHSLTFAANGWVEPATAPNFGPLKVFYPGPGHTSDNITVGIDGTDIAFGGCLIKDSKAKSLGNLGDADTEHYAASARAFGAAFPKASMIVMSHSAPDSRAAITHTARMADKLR

pIC50, 4.52 to 5.00:
CCC/C(C(=O)O)=C(\CCC)C(=O)O [Example 2, Disodium 2,3-di-n-propylmaleate]
CC/C(C(=O)O)=C(\Cc1ccccc1)C(=O)O [Example 4, Disodium 2-benzyl-3-ethylmaleate]
CC/C(C(=O)O)=C(/C(=O)O)C(C)C [Example 10, Disodium 3-ethyl-2-isopropylmaleate]
CC(C)/C(C(=O)O)=C(/C(=O)O)C(C)C [Example 11, Disodium 2,3-diisopropylmaleate]
CC(C)/C(C(=O)O)=C(\Cc1ccccc1)C(=O)O [Example 12, Disodium 3-benzyl-2-isopropylmaleate]
Cc1ccccc1C/C(C(=O)O)=C(/C(=O)O)C(C)C [Example 13, Disodium 2-isopropyl-3-(2-methylphenyl)methylmaleate]
CC(C)/C(C(=O)O)=C(/C(=O)O)C1CCOCC1 [Example 22, Disodium 3-isopropyl-2-(tetrahydropyran-4-yl)maleate]
CC(C)/C(C(=O)O)=C(\Cc1ccc(C(=O)O)cc1)C(=O)O [Example 25, Trisodium 2-(4-carboxybenzyl)-3-isopropylmaleate]
CC(C)/C(C(=O)O)=C(\Cc1ccc(C(N)=O)cc1)C(=O)O [Example 26, Disodium 2-(4-carbamoylbenzyl)-3-isopropylmaleate]
CC(C)/C(C(=O)O)=C(\Cc1ccc(C(=O)N2CCOCC2)cc1)C(=O)O [Example 27, Disodium 2-isopropyl-3-[4-(morpholine-1-carbonyl)benzyl]maleate]
CC(C)/C(C(=O)O)=C(\Cc1ccc(O)cc1)C(=O)O [Example 31, Trisodium 2-(4-oxidobenzyl)-3-isopropylmaleate]

pIC50, 4.00 to 4.52:
C/C(C(=O)O)=C(/C(=O)O)C(C)C [Example 9, Disodium 2-isopropyl-3-methylmaleate]
CC(C)/C(C(=O)O)=C(\Cc1cccnc1)C(=O)O [Example 23, Disodium 2-isopropyl-3-[(pyridine-3-yl)methyl]maleate]
CC/C(C(=O)O)=C(\SC(C)C)C(=O)O [Example 24, Disodium 3-ethyl-2-isopropylthiomaleate]
CC(C)/C(C(=O)O)=C(\Cc1ccc(C(=O)N2CCC(O)CC2)cc1)C(=O)O [Example 28, Disodium 2-[4-(4-hydroxypiperidine-1-carbonyl)benzyl]-3-isopropylmaleate]
CC(C)/C(C(=O)O)=C(\Cc1ccc(OCCNC(=N)N)cc1)C(=O)O [Example 37, Disodium 2-[4-(2-guanidinoethoxy)benzyl]-3-isopropyl maleate]
O=C(O)/C(=C(\C(=O)O)C1CCOCC1)C1CCOCC1 [Example 40, Disodium 2,3-bis(tetrahydro-2H-pyran-4-yl)maleate]

pIC50, > 5.00:
CC/C(C(=O)O)=C(\Cc1ccc(O)cc1)C(=O)O [Example 5, Disodium 3-ethyl-2-(4-hydroxybenzyl)maleate]
O=C(O)/C(Cc1ccccc1)=C(/Cc1ccccc1)C(=O)O [Example 6, Disodium 2,3-dibenzylmaleate]
O=C(O)/C(CCc1ccccc1)=C(/Cc1ccccc1)C(=O)O [Example 7, Disodium 2-benzyl-3-phenethylmaleate]
O=C(O)/C(CCc1ccccc1)=C(/CCc1ccccc1)C(=O)O [Example 8, Disodium 2,3-diphenethylmaleate]
CC/C(C(=O)O)=C(/C(=O)O)C1CCCC1 [Example 14, Disodium 2-cyclopentyl-3-ethylmaleate]
CC(C)/C(C(=O)O)=C(/C(=O)O)C1CCCC1 [Example 15, Disodium 2-cyclopentyl-3-isopropylmaleate]
O=C(O)/C(Cc1ccccc1)=C(\C(=O)O)C1CCCC1 [Example 16, Disodium 3-benzyl-2-cyclopentylmaleate]
O=C(O)/C(=C(\C(=O)O)C1CCCC1)C1CCCC1 [Example 17, Disodium 2,3-dicyclopentylmaleate]
CC(C)/C(C(=O)O)=C(/C(=O)O)C1Cc2ccccc2C1 [Example 18, Disodium 2-(2,3-dihydro-1H-inden-2-yl)-3-isopropylmaleate]
CC(C)/C(C(=O)O)=C(/C(=O)O)C1CCCCC1 [Example 19, Disodium 2-cyclohexyl-3-isopropylmaleate]
CC(C)/C(C(=O)O)=C(/C(=O)O)[C@H]1CC[C@@H](O)CC1 [Example 21, Disodium 2-(cis-4-hydroxycyclohexyl)-3-isopropylmaleate]
CC(C)/C(C(=O)O)=C(\Cc1ccc(C(=O)NCC(N)=O)cc1)C(=O)O [Example 29, Disodium 2-[4-(2-amino-2-oxoethylcarbamoyl)benzyl]-3-isopropylmaleate]
COc1ccc(C/C(C(=O)O)=C(/C(=O)O)C(C)C)cc1 [Example 30, Disodium 2-isopropyl-3-(4-methoxybenzyl)maleate]
CC(C)/C(C(=O)O)=C(\Cc1ccc(OCC(=O)O)cc1)C(=O)O [Example 32]
CC(C)/C(C(=O)O)=C(\Cc1ccc(OCC(N)=O)cc1)C(=O)O [Example 33, Disodium 2-[4-(2-amino-2-oxoethoxy)benzyl]-3-isopropylmaleate]
CC(C)/C(C(=O)O)=C(\Cc1ccc(OCCN)cc1)C(=O)O [Example 34, Disodium 2-[4-(2-aminoethoxy)benzyl]-3-isopropylmaleate]
CC(C)/C(C(=O)O)=C(\Cc1ccc(OCCn2ccnc2)cc1)C(=O)O [Example 35, Disodium 2-{4-[2-(1H-imidazol-1-yl)ethoxy]benzyl}-3-isopropylmaleate]
CC(C)/C(C(=O)O)=C(\Cc1ccc(OC2CCNC2)cc1)C(=O)O (stereo not shown) [Example 36, Disodium 2-isopropyl-3-[4-(pyrrolidin-3-yloxy)benzyl]maleate]
O=C(O)/C(=C(\C(=O)O)[C@H]1CC[C@@H](O)CC1)C1CCCC1 [Example 38, Disodium 2-cyclopentyl-3-(cis-4-hydroxycyclohexyl)maleate]
O=C(O)/C(=C(\C(=O)O)[C@H]1CC[C@@H](O)CC1)[C@H]1CC[C@@H](O)CC1 [Example 39, Disodium 2,3-bis(cis-4-hydroxycyclohexyl)maleate]

Source: patent US9115079B2, “NDM inhibitor” (priority 2011, dated 2015)
